In patent US9662327B2 (AGIOS PHARMACEUTICALS, INC, priority 2011, dated 2017):

Key:
HT1080 cells = experiment: Cellular assay for IDH1m inhibitors: inhibition of 2-HG production in HT1080 cells (LC-MS); type: cell-based
Experimental: (§1) Cells (e.g., HT1080 or U87MG) are grown in T125 flasks in DMEM containing 10% FBS, 1× penicillin/streptomycin and 500 ug/mL G418. They are harvested by trypsin and seeded into 96 well white bottom plates at a density of 5000 cell/well in 100 ul/well in DMEM with 10% FBS. No cells are plates in columns 1 and 12. Cells are incubated overnight at 37 C in 5% CO2. The next day compounds are made up at 2× concentration and 100 ul are added to each cell well. The final concentration of DMSO is 0.2% and the DMSO control wells are plated in row G. The plates are then placed in the incubator for 48 hours. At 48 hours, 100 ul of media is removed from each well and analyzed by LC-MS for 2-HG concentrations. The cell plate is placed back in the incubator for another 24 hours. At 72 hours post compound addition, 10 mL/plate of Promega Cell Titer Glo reagent is thawed and mixed. The cell plate is removed from the incubator and allowed to equilibrate to room temperature. Then 100 ul of reagent is added to each well of media. The cell plate is then placed on an orbital shaker for 10 minutes and then allowed to sit at room temperature for 20 minutes. The plate is then read for luminescence with an integration time of 500 ms.

IDH1 R132H = IDH1 R132H (Homo sapiens (Human), UniProt O75874, R132H); experiment: Assays for IDH1 R132H Inhibitors (NADPH/aKG, resazurin detection); type: biochemical; conditions: IDH1 R132H enzyme, Table 3; read-out: R132H IC50
IDH1 R132H, sequence (O75874 whole entry R132H): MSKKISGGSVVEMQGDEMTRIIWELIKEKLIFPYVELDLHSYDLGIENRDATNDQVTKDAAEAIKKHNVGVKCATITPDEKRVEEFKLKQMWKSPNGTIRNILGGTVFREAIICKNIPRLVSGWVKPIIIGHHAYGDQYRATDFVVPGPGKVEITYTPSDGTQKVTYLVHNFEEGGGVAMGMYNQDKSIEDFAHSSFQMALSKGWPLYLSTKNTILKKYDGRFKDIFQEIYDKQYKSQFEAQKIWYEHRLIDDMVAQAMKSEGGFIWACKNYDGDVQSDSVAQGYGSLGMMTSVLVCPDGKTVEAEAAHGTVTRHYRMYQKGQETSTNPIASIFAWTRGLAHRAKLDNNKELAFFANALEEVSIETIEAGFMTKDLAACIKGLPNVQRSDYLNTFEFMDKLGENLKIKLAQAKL
How it was run: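 Mutant enzyme in 150 mM NaCl, 10 mM MgCl2, 20 mM Tris pH 7.5, 0.03% BSA; compound in DMSO added to substrate mix of 8 uM NADPH and 2 mM aKG. Reaction ran 50 min at room temperature, then resazurin detection mix (30 μM) added for 5 min at room temperature.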

U87R132H (U87MG) cells = experiment: Cellular assay for IDH1m inhibitors: inhibition of 2-HG production in U87MG (U87R132H) cells (LC-MS); type: cell-based; conditions: 48 hours
Experimental: as §1

[1] = Homo sapiens, HT-1080, 48 hours

Row | IC50 (HT1080 cells; [1]) [nM] | IC50 (IDH1 R132H) [nM] | IC50 (U87R132H (U87MG) cells; Homo sapiens, U-87 MG) [nM] | Compound | IC50 (HT1080 cells; 48 hours) [nM] | IC50 (U87R132H (U87MG) cells) [nM]
1 | < 500 | < 500 | < 500 | [2H]C1([2H])CN(c2nc(C3CC3)c3c(c2C#N)CC(C)(C)OC3)C([2H])([2H])[C@@]([2H])(C([2H])(C([2H])([2H])[2H])C([2H])([2H])[2H])N1C(=O)CCOC [Compound 438, (R)-8-cyclopropyl-3,3-dimethyl-6-(2,2,3,5,5-pentadeuterio-4-(3-methoxypropanoyl)-3-(perdeuteriopropan-2-yl)piperazin-1-yl)-3,4-dihydro-1H-pyrano[3,4-c]pyridine-5-carbonitrile] | – | –
2 | < 500 | < 500 | < 500 | COC(=O)CC(=O)N1CCN(c2nc(C3CC3)c3c(c2C#N)CC(C)(C)OC3)C[C@H]1C1CC1 [Compound 440, (R)-methyl 3-(4-(5-cyano-8-cyclopropyl-3,3-dimethyl-3,4-dihydro-1H-pyrano[3,4-c]pyridin-6-yl)-2-cyclopropylpiperazin-1-yl)-3-oxopropanoate] | – | –
3 | < 500 | < 500 | < 500 | [2H]C([2H])([2H])C([2H])(C([2H])([2H])[2H])[C@@]1([2H])N(C(=O)CCOC)C([2H])([2H])C([2H])([2H])N(c2nc(C3CC3)c3c(c2C#N)CC(C)(C)OC3)C1([2H])[2H] [Compound 441, (R)-8-cyclopropyl-6-(2,2,3,3,5,6,6-heptadeuterio-4-(3-methoxypropanoyl)-5-(perdeuteriopropan-2-yl)piperazin-1-yl)-3,3-dimethyl-3,4-dihydro-1H-pyrano[3,4-c]pyridine-5-carbonitrile] | – | –
4 | 500 to 1000 | < 500 | 500 to 1000 | CC(O)CC(=O)N1CCN(c2nc(C3CC3)c3c(c2C#N)CC(C)(C)OC3)C[C@H]1C1CC1 (stereo partly drawn) [Compound 442, 8-cyclopropyl-6-((3R)-3-cyclopropyl-4-(3-hydroxybutanoyl)piperazin-1-yl)-3,3-dimethyl-3,4-dihydro-1H-pyrano[3,4-c]pyridine-5-carbonitrile] | – | –
5 | 1000 to 10000 | < 500 | 1000 to 10000 | CC(C)[C@@H]1CN(c2nc(C3CC3)c3c(c2C#N)CC(C)(C)OC3)CCN1C(=O)CCCO [Compound 443, (R)-8-cyclopropyl-6-(4-(4-hydroxybutanoyl)-3-isopropylpiperazin-1-yl)-3,3-dimethyl-3,4-dihydro-1H-pyrano[3,4-c]pyridine-5-carbonitrile] | – | –
6 | < 500 | < 500 | < 500 | [2H]C1([2H])CN(C(=O)CCOC)[C@]([2H])(C([2H])(C([2H])([2H])[2H])C([2H])([2H])[2H])CN1c1nc(C2CC2)c2c(c1C#N)CC(C)(C)OC2 [Compound 444, (R)-8-cyclopropyl-3,3-dimethyl-6-(2,2,5-trideuterio-4-(3-methoxypropanoyl)-5-(perdeuteriopropan-2-yl)piperazin-1-yl)-3,4-dihydro-1H-pyrano[3,4-c]pyridine-5-carbonitrile] | – | –
7 | < 500 | < 500 | < 500 | CSCC(=O)N1CCN(c2nc(C3CC3)c3c(c2C#N)CC(C)(C)OC3)C[C@H]1C(C)C [Compound 445, (R)-8-cyclopropyl-6-(3-isopropyl-4-(2-(methylthio)acetyl)piperazin-1-yl)-3,3-dimethyl-3,4-dihydro-1H-pyrano[3,4-c]pyridine-5-carbonitrile] | – | –
8 | < 500 | < 500 | < 500 | [2H]C([2H])([2H])C([2H])(C([2H])([2H])[2H])[C@@]1([2H])N(C(=O)CCC(=O)OC)C([2H])([2H])C([2H])([2H])N(c2nc(C3CC3)c3c(c2C#N)CC(C)(C)OC3)C1([2H])[2H] [Compound 450] | – | –
9 | 1000 to 10000 | < 500 | 500 to 1000 | [2H]C([2H])([2H])C([2H])(C([2H])([2H])[2H])[C@@]1([2H])N(C(=O)CC(F)(F)F)C([2H])([2H])C([2H])([2H])N(c2nc(C3CC3)c3c(c2C#N)CC(C)(C)OC3)C1([2H])[2H] [Compound 452, (R)-8-cyclopropyl-6-(2,2,3,3,5,6,6-heptadeuterio-5-(perdeuteriopropan-2-yl)-4-(3,3,3-trifluoropropanoyl)piperazin-1-yl)-3,3-dimethyl-3,4-dihydro-1H-pyrano[3,4-c]pyridine-5-carbonitrile] | – | –
10 | < 500 | 500 to 1000 | < 500 | CC(C)[C@@H]1CN(c2nc(C3CC3)c3c(c2C#N)CC(C)(C)OC3)CCN1C(=O)Cc1nnco1 [Compound 455, (R)-6-(4-(2-(1,3,4-oxadiazol-2-yl)acetyl)-3-isopropylpiperazin-1-yl)-8-cyclopropyl-3,3-dimethyl-3,4-dihydro-1H-pyrano[3,4-c]pyridine-5-carbonitrile] | – | –
11 | 500 to 1000 | < 500 | < 500 | CCOC(=O)CCC(=O)N1CCN(c2nc(C3CC3)c3c(c2C#N)CC(C)(C)OC3)C[C@H]1C(C)C [Compound 456, (R)-ethyl-4-(4-(5-cyano-8-cyclopropyl-3,3-dimethyl-3,4-dihydro-1H-pyrano[3,4-c]pyridin-6-yl)-2-isopropylpiperazin-1-yl)-4-oxobutanoate] | – | –
12 | 500 to 1000 | < 500 | 500 to 1000 | CC(C)OC(=O)CCC(=O)N1CCN(c2nc(C3CC3)c3c(c2C#N)CC(C)(C)OC3)C[C@H]1C(C)C [Compound 457, (R)-isopropyl 4-(4-(5-cyano-8-cyclopropyl-3,3-dimethyl-3,4-dihydro-1H-pyrano[3,4-c]pyridin-6-yl)-2-isopropylpiperazin-1-yl)-4-oxobutanoate] | – | –
13 | < 500 | < 500 | < 500 | CC1(C)Cc2c(C#N)c(N3CCN(C(=O)CCO)[C@H](C4CC4)C3)nc(C3CC3)c2CO1 [Compound 460, (R)-8-cyclopropyl-6-(3-cyclopropyl-4-(3-hydroxypropanoyl)piperazin-1-yl)-3,3-dimethyl-3,4-dihydro-1H-pyrano[3,4-c]pyridine-5-carbonitrile] | – | –
14 | 500 to 1000 | < 500 | < 500 | CC1(C)Cc2c(C#N)c(N3CCN(C(=O)C4CC4)[C@H](C4CC4)C3)nc(C3CC3)c2CO1 [Compound 461, (R)-6-(4-(cyclopropanecarbonyl)-3-cyclopropylpiperazin-1-yl)-8-cyclopropyl-3,3-dimethyl-3,4-dihydro-1H-pyrano[3,4-c]pyridine-5-carbonitrile] | – | –
15 | 500 to 1000 | < 500 | 500 to 1000 | CC(C)[C@@H]1CN(c2nc(C3CC3)c3c(c2C#N)CC(C)(C)OC3)CCN1C(=O)[C@@H]1C[C@H]1CO [Compound 462, 8-Cyclopropyl-6-((R)-4-((1R,2R)-2-(hydroxymethyl)cyclopropanecarbonyl)-3-isopropylpiperazin-1-yl)-3,3-dimethyl-3,4-dihydro-1H-pyrano[3,4-c]pyridine-5-carbonitrile] | – | –
16 | 1000 to 10000 | 500 to 1000 | 1000 to 10000 | CC1(C)Cc2c(C#N)c(N3CCN(C(=O)C4CC4)C(C(F)F)C3)nc(C3CC3)c2CO1 (stereo not drawn) [Compound 463, 6-(4-(cyclopropanecarbonyl)-3-(difluoromethyl)piperazin-1-yl)-8-cyclopropyl-3,3-dimethyl-3,4-dihydro-1H-pyrano[3,4-c]pyridine-5-carbonitrile] | – | –
17 | 500 to 1000 | < 500 | < 500 | CCOC(=O)[C@@H]1C[C@H]1C(=O)N1CCN(c2nc(C3CC3)c3c(c2C#N)CC(C)(C)OC3)C[C@H]1C(C)C [Compound 465, (1R,2R)-ethyl 2-((R)-4-(5-cyano-8-cyclopropyl-3,3-dimethyl-3,4-dihydro-1H-pyrano[3,4-c]pyridin-6-yl)-2-isopropylpiperazine-1-carbonyl)cyclopropanecarboxylate] | – | –
18 | 1000 to 10000 | < 500 | 1000 to 10000 | COCCC(=O)N1CCN(c2nc(C3CC3)c3c(c2C#N)CC(C)(C)OC3)CC1CC(F)(F)F (stereo not drawn) [Compound 469, 8-cyclopropyl-6-(4-(3-methoxypropanoyl)-3-(2,2,2-trifluoroethyl)piperazin-1-yl)-3,3-dimethyl-3,4-dihydro-1H-pyrano[3,4-c]pyridine-5-carbonitrile] | – | –
19 | < 500 | < 500 | 500 to 1000 | CC(C)[C@@H]1CN(c2nc(C3CC3)c3c(c2C#N)CC(C)(C)OC3)CCN1C(=O)CC1CCO1 (stereo partly drawn) [Compound 473, 8-cyclopropyl-6-((3R)-3-isopropyl-4-(2-(oxetan-2-yl)acetyl)piperazin-1-yl)-3,3-dimethyl-3,4-dihydro-1H-pyrano[3,4-c]pyridine-5-carbonitrile] | – | –

Row | Compound | IC50 (HT1080 cells; [1]) [nM] | IC50 (IDH1 R132H) [nM] | IC50 (U87R132H (U87MG) cells; Homo sapiens, U-87 MG) [nM] | IC50 (HT1080 cells; 48 hours) [nM] | IC50 (U87R132H (U87MG) cells) [nM]
20 | COC(=O)[C@@H]1C[C@H]1C(=O)N1CCN(c2nc(C3CC3)c3c(c2C#N)CC(C)(C)OC3)C[C@H]1C(C)C [Compound 454] | – | < 500 | – | 500 to 1000 | 500 to 1000
